In patent publication US5140009A (Tap Pharmaceuticals, Inc., priority 1990, dated 1992):
Numbered stars: 1 amine (or outer) side, 2 acyl side, 3 side chain; on linkers, the order of the positions; unused ones are H or OH. Square brackets hold non-standard residues; d marks the D form. Side chains are listed from the residue outwards. Peptide text beside a SMILES is read from it. * marks the point of attachment. Propanoyl(3-(4-F-phenyl)) = O=C(CCc1ccc(F)cc1)*; X10 = O=C([C@@H](Cc1cncs1)N[*:1])[*:2]; d1Nal = N[C@H](Cc1cccc2ccccc12)C(=O)O; Lys(iPr) = CC(C)NCCCC[C@H](N)C(=O)O; NMeY = CN[C@@H](Cc1ccc(O)cc1)C(=O)O; Pyrazinecarbonyl = O=C(c1cnccn1)*; Benzoyl(4-F) = O=C(c1ccc(F)cc1)*; NMeF = CN[C@@H](Cc1ccccc1)C(=O)O; d3Pal = N[C@H](Cc1cccnc1)C(=O)O; Nicotinoyl = O=C(c1cccnc1)*; X12 = O=C(c1ccc(F)c(Cl)c1)*; Morpholide = C1CN(*)CCO1; Orn = NCCC[C@H](N)C(=O)O; CO = O=C([*:1])[*:2]; Bn = c1ccc(C*)cc1; azaGly = NNC(=O)O

Each molecule was assayed against T1, LHRH receptors (Rattus norvegicus, UniProt P30969) (assay: Receptor Binding (radioligand receptor binding assay)). Settings: table 4; rat pituitary membranes, radioligand 50 pM, 2 hours at 4° C.; read-out: Receptor Binding pkI (converted).
T1 construct: Pituitary membranes containing LHRH receptors are prepared in batches from quick-frozen rat pituitaries; tissue Hilltop Labs; host or cells: rat pituitary membranes
T1 sequence (P30969 1-327): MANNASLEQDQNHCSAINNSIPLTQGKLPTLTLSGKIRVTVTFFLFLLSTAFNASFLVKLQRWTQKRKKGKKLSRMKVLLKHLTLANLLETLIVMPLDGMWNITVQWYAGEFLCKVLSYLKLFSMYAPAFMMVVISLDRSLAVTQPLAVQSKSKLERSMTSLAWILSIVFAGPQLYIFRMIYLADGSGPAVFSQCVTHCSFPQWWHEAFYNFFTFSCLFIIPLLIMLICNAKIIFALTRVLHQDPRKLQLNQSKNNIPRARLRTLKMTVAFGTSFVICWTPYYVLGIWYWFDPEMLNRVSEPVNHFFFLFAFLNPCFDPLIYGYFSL

| Ki [nM] | SMILES |
| --- | --- |
| 0.00891 | CC(C)C[C@H](NC(=O)[C@@H](CCCCNC(=O)N1CCOCC1)NC(=O)[C@H](Cc1ccc(O)cc1)N(C)C(=O)[C@H](CO)NC(=O)[C@@H](Cc1cccc2ccccc12)NC(=O)CCc1ccc(F)cc1)C(=O)N[C@@H](CCCNC(=N)N)C(=O)N1CCC[C@H]1C(=O)N[C@H](C)C(N)=O [Compound 210, N-(3-(4-Fluorophenyl)propionyl)-D-1-Nal-Ser-NMeTyr-D-Lys(N-epsilon-morpholinecarbonyl)-Leu-Arg-Pro-D-AlaNH2] ({Propanoyl(3-(4-F-phenyl))}-[d1Nal]S[NMeY][dK]([CO-Morpholide])LRP[dA]-NH2) |
| 0.0339 | CC(C)C[C@H](NC(=O)[C@@H](CCCCNC(=O)c1cccnc1)NC(=O)[C@H](CCCCNC(=O)NN)NC(=O)[C@H](CO)NC(=O)[C@@H](Cc1cccc2ccccc12)NC(=O)CCc1ccc(F)cc1)C(=O)N[C@@H](CCCNC(=N)N)C(=O)N1CCC[C@H]1C(=O)N[C@H](C)C(N)=O [Compound 212, N-(3-(4-Fluorophenyl)propionyl)-D-1-Nal-Ser-Lys(N-epsilon-hydrazinecarbonyl)-D-Lys(N-epsilon-nicotinyl)-Leu-Arg-Pro-D-AlaNH2] ({Propanoyl(3-(4-F-phenyl))}-[d1Nal]SK(azaGly)[dK](Nicotinoyl)LRP[dA]-NH2) |
| 0.0148 | CC(C)C[C@H](NC(=O)[C@@H](CCCCNC(=O)N1CCOCC1)NC(=O)[C@H](Cc1ccc(O)cc1)N(C)C(=O)[C@H](CO)NC(=O)[C@@H](Cc1cccc2ccccc12)NC(=O)CCc1ccc(F)cc1)C(=O)N[C@@H](CCCCNC(C)C)C(=O)N1CCC[C@H]1C(=O)N[C@H](C)C(N)=O [Compound 213, N-(3-(4-Fluorophenyl)propionyl)-D-1-Nal-Ser-NMeTyr-D-Lys(N-epsilon-morpholnecarbonyl)-Leu-Lys(N-epsilon-isopropyl)-Pro-D-AlaNH2] ({Propanoyl(3-(4-F-phenyl))}-[d1Nal]S[NMeY][dK]([CO-Morpholide])L[Lys(iPr)]P[dA]-NH2) |
| 0.141 | CC(=O)NCCCC[C@H](NC(=O)c1ccc(F)c(Cl)c1)C(=O)N[C@H](Cc1cccc2ccccc12)C(=O)N[C@@H](CO)C(=O)N(C)[C@@H](Cc1ccc(O)cc1)C(=O)N[C@H](CCCCN)C(=O)N[C@@H](CC(C)C)C(=O)N[C@@H](CCCNC(=N)N)C(=O)N1CCC[C@H]1C(=O)N[C@H](C)C(N)=O [Compound 214, N-alpha-(3-Chloro-4-Fluorobenzoyl)-Lys(N-epsilon-acetyl)-D-1-Nal-Ser-NMeTyr-D-Lys-Leu-Arg-Pro-D-AlaNH2] (X12-K(Ac)[d1Nal]S[NMeY][dK]LRP[dA]-NH2) |
| 0.339 | CC(=O)NCCC[C@H](NC(=O)c1ccc(F)cc1)C(=O)N[C@H](Cc1cccc2ccccc12)C(=O)N[C@@H](CO)C(=O)N(C)[C@@H](Cc1ccc(O)cc1)C(=O)N[C@H](Cc1cncs1)C(=O)N[C@@H](CC(C)C)C(=O)N[C@@H](CCCCNC(C)C)C(=O)N1CCC[C@H]1C(=O)N[C@H](C)C(N)=O [Compound 215, N-alpha-(4-Fluorobenzoyl)-Orn(N-delta-acetyl)-D-1-Nal-Ser-NMeTyr-D-Thiaz-Leu-Lys(N-epsilon-isopropyl)-Pro-D-AlaNH2] ({Benzoyl(4-F)}-[Orn](Ac)[d1Nal]S[NMeY][X10]L[Lys(iPr)]P[dA]-NH2) |
| 1.91 | CC(=O)NCCC[C@H](NC(=O)c1ccc(F)cc1)C(=O)N[C@H](Cc1cccc2ccccc12)C(=O)N[C@@H](CO)C(=O)N[C@@H](Cc1ccc(O)cc1)C(=O)N[C@H](CCCCNC(=O)c1cccnc1)C(=O)N[C@@H](CC(C)C)C(=O)N[C@@H](CCCNC(=N)N)C(=O)N1CCC[C@H]1C(=O)N[C@H](C)C(N)=O [Compound 217, N-alpha-(4-Fluorobenzoyl)-Orn(N-delta-acetyl)-D-1-Nal-Ser-Tyr-D-Lys(N-epsilon-nicotinyl)-Leu-Arg-Pro-D-AlaNH2] ({Benzoyl(4-F)}-[Orn](Ac)[d1Nal]SY[dK](Nicotinoyl)LRP[dA]-NH2) |
| 0.832 | CC(=O)NCCC[C@H](NC(=O)c1ccc(F)cc1)C(=O)N[C@H](Cc1cccc2ccccc12)C(=O)N[C@@H](CO)C(=O)N(C)[C@@H](Cc1ccc(O)cc1)C(=O)N[C@H](CCCCNC(=O)c1cccnc1)C(=O)N[C@@H](CC(C)C)C(=O)N[C@@H](CCCCNC(C)C)C(=O)N1CCC[C@H]1C(=O)N[C@H](C)C(N)=O [Compound 218, N-alpha-(4-Fluorobenzoyl)-Orn(N-delta-acetyl)-D-1-Nal-Ser-NMeTyr-D-Lys(N-epsilon-nicotinyl)-Leu-Lys(N-epsilon-isopropyl)-Pro-D-AlaNH2] ({Benzoyl(4-F)}-[Orn](Ac)[d1Nal]S[NMeY][dK](Nicotinoyl)L[Lys(iPr)]P[dA]-NH2) |
| 0.17 | CC(C)C[C@H](NC(=O)[C@@H](Cc1c[nH]c2ccccc12)NC(=O)[C@H](Cc1ccc(O)cc1)N(C)C(=O)[C@H](CO)NC(=O)[C@@H](Cc1c[nH]c2ccccc12)NC(=O)[C@@H](Cc1cccc2ccccc12)NC(=O)N1CCOCC1)C(=O)N[C@@H](CCCNC(=N)N)C(=O)N1CCC[C@H]1C(=O)N[C@H](C)C(N)=O [Compound 220, (2-10)[N-(alpha-Morpholinocarbonyl)-D-1-Nal^2 -D-Trp^3,6 -NMeTyr^5 -D-Ala^10]LHRH] ({Morpholide-CO}-[d1Nal][dW]S[NMeY][dW]LRP[dA]-NH2) |

Continued, molecule first:

| SMILES | Ki [nM] |
| --- | --- |
| COc1ccc(C[C@H](NC(=O)[C@H](CO)NC(=O)[C@@H](Cc2cccc3ccccc23)NC(=O)CCc2ccc(F)cc2)C(=O)N[C@H](CCCCNC(=O)c2cccnc2)C(=O)N[C@@H](CC(C)C)C(=O)N[C@@H](CCCCNC(C)C)C(=O)N2CCC[C@H]2C(=O)N[C@H](C)C(N)=O)cc1 [Compound 200, (3-10)[N-(3-(4-Fluorophenyl)propionyl)-D-1-Nal^3 -Tyr^5 (OMe)-D-Lys^6 (N-epsilon-nicotinyl)-Lys^8 (N-epsilon-isopropyl)-D-Ala^10]LHRH] ({Propanoyl(3-(4-F-phenyl))}-[d1Nal]SY(Me)[dK](Nicotinoyl)L[Lys(iPr)]P[dA]-NH2) | 0.00437 |
| CC(C)C[C@H](NC(=O)[C@@H](Cc1cccnc1)NC(=O)[C@H](Cc1ccc(O)cc1)NC(=O)[C@H](CO)NC(=O)[C@@H](Cc1cccc2ccccc12)NC(=O)CCc1ccc(F)cc1)C(=O)N[C@@H](CCCCNC(C)C)C(=O)N1CCC[C@H]1C(=O)N[C@H](C)C(N)=O [Compound 201, (3-10)[N-(3-(4-Fluorophenyl)propionyl)-D-1-Nal^3 -D-3Pal^6 -Lys^8 (N-epsilon-isopropyl)-D-Ala^10]LHRH] ({Propanoyl(3-(4-F-phenyl))}-[d1Nal]SY[d3Pal]L[Lys(iPr)]P[dA]-NH2) | 0.0204 |
| CC(C)C[C@H](NC(=O)[C@@H](Cc1cccnc1)NC(=O)[C@H](Cc1ccc(O)cc1)NC(=O)[C@H](COCc1ccccc1)NC(=O)[C@@H](Cc1cccc2ccccc12)NC(=O)CCc1ccc(F)cc1)C(=O)N[C@@H](CCCCNC(C)C)C(=O)N1CCC[C@H]1C(=O)N[C@H](C)C(N)=O [Compound 202, (3-10)[N-(3-(4-Fluorophenyl)propionyl)-D-1-Nal^3 -Ser^4 (O-Bzl)-D-3-Pal^6 -Lys^8 (N-epsilon-isopropyl)-D-Ala^10]LHRH] ({Propanoyl(3-(4-F-phenyl))}-[d1Nal]S(Bn)Y[d3Pal]L[Lys(iPr)]P[dA]-NH2) | 0.138 |
| COc1ccc(C[C@H](NC(=O)[C@H](CO)NC(=O)[C@@H](Cc2cccc3ccccc23)NC(=O)CCc2ccc(F)cc2)C(=O)N[C@H](CCCCNC(=O)c2cnccn2)C(=O)N[C@@H](CC(C)C)C(=O)N[C@@H](CCCCNC(C)C)C(=O)N2CCC[C@H]2C(=O)N[C@H](C)C(N)=O)cc1 [Compound 203, (3-10)[N-(3-(4-Fluorophenyl)propionyl)-D-1-Nal^3 -Tyr^5 (OMe)-D-Lys^6 (N-epsilon-2-carbonylpyrazinyl)-Lys^8 (N-epsilon-isopropyl)-D-Ala^10]LHRH] ({Propanoyl(3-(4-F-phenyl))}-[d1Nal]SY(Me)[dK](Pyrazinecarbonyl)L[Lys(iPr)]P[dA]-NH2) | 0.0209 |
| CC(C)C[C@H](NC(=O)[C@@H](Cc1cncs1)NC(=O)[C@H](Cc1ccc(O)cc1)N(C)C(=O)[C@H](CO)NC(=O)[C@@H](Cc1cccc2ccccc12)NC(=O)CCc1ccc(F)cc1)C(=O)N[C@@H](CCCCNC(C)C)C(=O)N1CCC[C@H]1C(=O)N[C@H](C)C(N)=O [Compound 204, (3-10)[N-(3-(4-Fluorophenyl)propionyl)-D-1-Nal^3 -NMeTyr^5 -D-Thiaz6-Lys^8 (N-epsilon-isopropyl)-D-Ala^10]LHRH] ({Propanoyl(3-(4-F-phenyl))}-[d1Nal]S[NMeY][X10]L[Lys(iPr)]P[dA]-NH2) | 0.0214 |
| CC(C)C[C@H](NC(=O)[C@@H](CCCCNC(=O)c1cccnc1)NC(=O)[C@H](Cc1ccccc1)N(C)C(=O)[C@H](CO)NC(=O)[C@@H](Cc1cccc2ccccc12)NC(=O)CCc1ccc(F)cc1)C(=O)N[C@@H](CCCCNC(C)C)C(=O)N1CCC[C@H]1C(=O)N[C@H](C)C(N)=O [Compound 205, (3-10)[N-(3-(4-Fluorophenyl)propionyl)-D-1-Nal^3 -NMePhe^5 -D-Lys^6 (N-epsilon-nicotinyl)-D-Ala^10]LHRH] ({Propanoyl(3-(4-F-phenyl))}-[d1Nal]S[NMeF][dK](Nicotinoyl)L[Lys(iPr)]P[dA]-NH2) | 0.0302 |
| CC(C)C[C@H](NC(=O)[C@@H](Cc1cccnc1)NC(=O)[C@H](Cc1ccc(O)cc1)N(C)C(=O)[C@H](CO)NC(=O)[C@@H](Cc1cccc2ccccc12)NC(=O)CCc1ccc(F)cc1)C(=O)N[C@@H](CCCCNC(C)C)C(=O)N1CCC[C@H]1C(=O)N[C@H](C)C(N)=O [Compound 208, (3-10)[N-(3-(4-Fluorophenyl)propionyl)-D-1-Nal^3 -NMeTyr^5 -D-3-Pal^6 -Lys^8 (N-epsilon-isopropyl)-D-Ala^10]LHRH] ({Propanoyl(3-(4-F-phenyl))}-[d1Nal]S[NMeY][d3Pal]L[Lys(iPr)]P[dA]-NH2) | 0.0126 |
